Data taken from article PMC4747383, “Design of a peptidic inhibitor that targets the dimer interface of a prototypic galectin” (Oncotarget, 2015).
No end group written: not given here.

Legend:
recombinant hGal-2 = test: Disruption of hGal-2 dimers, native gel electrophoresis/Western blot; format: biochemical, human; conditions: recombinant hGal-2, 20 mM potassium phosphate pH 7.1, films overexposed, three independent experiments
Description: To measure the ability of the peptides to disrupt the formation of hGal-7 dimers, we used mild denaturing native gel electrophoresis, a commonly used approach to visualize monomer-dimer equilibrium (Fig. 1A and Supplementary Fig. S1). […] This specificity at disrupting hGal-7 dimer formation is provided by distinct three-dimensional arrangements between otherwise very similar galectin homologues. Indeed, while all monomeric galectins reveal identical topologies, dimer formation in hGal-7 proceeds through a “back-to-back” topology of the monomers while other galectins, including hGal-1 and hGal-2, adopt a “side-by-side” structural arrangement (Fig. 1B). This structural organization provides additional means to specifically target and disrupt galectin function.
Incubation of the recombinant B. hGal-1 and C. hGal-2 with hGal-7(129–135) was performed in the same potassium phosphate buffer. The effect of hGal-7(129–135) on the monomeric and dimeric forms of hGal-7/hGal-1/hGal-2 was assessed by Western blotting in native conditions with respective antibodies. The hGal-1/hGal-2 films were overexposed. PACAP28–38 was the control peptide used in order to ensure the specificity of hGal-7(129–135). […]
Human Gal-7 cDNA was cloned into pET-22b(+) using NdeI and HindIII restriction enzymes. […] Purified fractions were analyzed by SDS-PAGE. […]

[1] = set-up: method as in PMID 22922050; conditions: ref [51]; cited from earlier work

Substance	disruption of hGal-2 homodimers (recombinant hGal-2)	binding of cell surface phospholipids [1]
H-LDSVRIP-NH2 [hGal-7(129–135), peptide corresponding to hGal-7 segment between residues 129–135]	No such effect was observed	
PACAP(28–38): an inactive fragment of the human Pituitary Adenylate Cyclase-Activating Polypeptide (PACAP) (GKRYKQRVKNK-NH2; ends and bridges not checked; UniProt P18509 159-169, looked up, fragment)		binds cell surface phospholipids
